Earlier results, collected in patent US20020086849A1, “Method for introducing antisense oligonucleotides into eucaryotic cells” (priority 2000, published 2002).

Details: as described in U.S. Pat. No. 5,753,613

For `CCCCCCCCCCCCCCCCCC[N+](C)(C)CCCCCCCCCCCCCCCCCC.[Br-]` [DDAB, dimethyldioctadecylammonium bromide], the transfection efficiency is given as “poor transfection efficiency”.
